Assay results: patent US20250299772A1, “METHOD FOR GENERATION OF CHEMICAL DERIVATIVES AGAINST TARGET PROTEIN TO BUILD AI DRUG PLATFORM” (SYNTEKABIO, INC., priority 2024, published 2025)

Biological target: protein A (a kinase)
Assay: Inhibition of protein A kinase activity (33P-ATP peptide phosphorylation, filter, scintillation counting)
Type: biochemical
Conditions: for IC50: Table 2, 10 μM [gamma-33P]-ATP, 10 μM peptide substrate, 40 minutes at room temperature; for pIC50 (experimental): Table 3, given with negative sign
Method: The hit compound derivatives synthesized as real compounds through Example 3 were evaluated for ability to inhibit the activity of protein A (a kinase).
Specifically, […] of protein A was incubated along with 8 mM MOPS (pH 7.0), 0.2 mM EDTA, 10 mM magnesium acetate, 10 μM [gamma-33P]-ATP, and 10 μM […], which is a phosphorylation target peptide. After incubation at room temperature for 40 minutes, the reaction was terminated by adding phosphoric acid to a final concentration of 0.5%. The reaction mixture was spotted onto a filter, then washed four times with 0.425% phosphoric acid for 4 minutes each. After washing once with methanol, the sample was dried and measured for radioactivity (scintillation counting) to assess phosphorylation (i.e., […](p)EDEEE peptide detection).

Row | IC50 [µM] | pIC50 (experimental) | SMILES
1 | 0.062 | 7.21 | O=C(Nc1cc(-c2cccc(NS(=O)(=O)N3CCOCC3)c2)n[nH]1)c1cc2nccnc2s1 [Compound D0025]
2 | 0.026 | 7.58 | C#CC(=O)Nc1cccc(-c2cc(NC(=O)c3ccc4nonc4c3)[nH]n2)c1 [Compound D0054]
3 | 0.119 | 6.92 | CC(C)(C)C(=O)Nc1cccc(-c2cc(NC(=O)c3nc4cccnc4s3)[nH]n2)c1 [Compound D0065]
4 | 0.03 | 7.52 | CC#CC(=O)Nc1cccc(-c2cc(NC(=O)c3cc4cc(OC)ccc4o3)[nH]n2)c1 [Compound D0069]
5 | 0.129 | 6.89 | O=C(Nc1cc(-c2cccc(NS(=O)(=O)N3CCOCC3)c2)n[nH]1)c1cccc2ncsc12 [Compound D0083]
6 | 0.013 | 7.89 | C#CC(=O)Nc1cccc(-c2cc(NC(=O)c3cc4nccnc4s3)[nH]n2)c1 [Compound D0101]
7 | 0.063 | 7.2 | C#CC(=O)Nc1cccc(-c2cc(NC(=O)c3cc4ccc(O)cc4o3)[nH]n2)c1 [Compound D0135]
8 | 0.04 | 7.4 | C#CC(=O)Nc1cccc(-c2cc(NC(=O)c3cc4ncc(O)nc4s3)[nH]n2)c1 [Compound D0137]
9 | 0.022 | 7.66 | C#CC(=O)Nc1cccc(-c2cc(NC(=O)c3cc4ccc(O)cc4o3)[nH]n2)c1 [Compound D0139]
10 | 0.004 | 8.4 | C#CC(=O)Nc1cccc(-c2cc(NC(=O)c3cc4c(s3)CCOC4)[nH]n2)c1 [Compound D0157]
11 | 0.019 | 7.72 | CC#CC(=O)Nc1cccc(-c2cc(NC(=O)c3cc4c(s3)CCOC4)[nH]n2)c1 [Compound D1008]
12 | 0.031 | 7.51 | CC#CC(=O)Nc1cccc(-c2cc(NC(=O)c3cc4c(s3)CCNC4)[nH]n2)c1 [Compound D1010]
13 | 0.008 | 8.1 | CC#CC(=O)Nc1cccc(-c2cc(NC(=O)c3cc4c(s3)CC(=O)NC4)[nH]n2)c1 [Compound D1011]
14 | 0.007 | 8.15 | C#CC(=O)Nc1cccc(-c2cc(NC(=O)c3cc4ncc(C(=O)O)nc4s3)[nH]n2)c1 [DM009]
15 | 0.01 | 8 | C#CC(=O)Nc1cccc(-c2cc(NC(=O)c3cc4ncc(C(N)=O)nc4s3)[nH]n2)c1 [DM010]
